Data reported in patent US20220153728A1, “COMPOUNDS, COMPOSITIONS AND METHODS” (DENALI THERAPEUTICS INC., priority 2017, published 2022).

Target: LRRK2 G2019S (Homo sapiens, UniProt Q5S007, G2019S)
Assay: LRRK2 G2019S TR-FRET kinase assay (LRRKtide substrate)
Type: biochemical
Conditions: LRRK2 G2019S enzyme 5 nM, 134 μM ATP, 60 minute reaction, 23° C.
Method: Materials: • LRRK2 G2019S enzyme • Substrate (LRRKtide) • ATP • TR-FRET dilution buffer • pLRRKtide antibody • 384-well assay plate • DMSO
Enzyme Reaction Conditions
23° C. reaction temperature
10 μL total reaction volume
Detection Reaction Conditions
1×TR-FRET dilution buffer
2 nM antibody • 23° C. reaction temperature • 10 μL total reaction volume
Compounds are prepared by initially diluting to 1 mM with DMSO. 35 μL of reference compound solution, 35 μL of test compound solution, and 35 μL HPE are successively added to the source plate (384-well assay plate, Labcyte). The plates are centrifuged at 2500 rpm for 1 minute and sealed in foil. POD is used to perform a 3.162 fold serial dilution and 100 nL of reference compound solution, test compound solution, HPE and ZPE are transferred to assay plates. The assay plate is centrifuged at 2500 rpm for 1 minute, and sealed with foil.
To perform the enzyme reaction, 5 μL of LRRKtide substrate and kinase mixture in assay buffer is added to all wells of the assay plate. The plate is centrifuged to concentrate the mixture at the bottom of the wells. The assay plate is incubated at 23° C. for 20 minutes. Following incubation, 5 μL of 2×ATP in assay buffer is added to each well, and plates are centrifuged to concentrate the mixture at the bottom of the wells. The plate is incubated at 23° C. for 60 minutes.
To perform the detection of the reaction, EDTA completely mixed in TR-FRET dilution buffer is added to antibody reagent. 10 μL of detection reagent is added to all wells of each well of the assay plate and the plate is centrifuged to concentrate the mixture at the bottom of the wells. The plate is then incubated at 23° C. for 60 minutes. Plates are read on Perkin Elmer Envision 2104 instrument in TR-FRET mode using a 340 nm excitation filter, 520 nm fluorescence emission filter, and 490 or 495 nm terbium emission filter.

LRRK2 G2019S, sequence (Q5S007 whole entry G2019S): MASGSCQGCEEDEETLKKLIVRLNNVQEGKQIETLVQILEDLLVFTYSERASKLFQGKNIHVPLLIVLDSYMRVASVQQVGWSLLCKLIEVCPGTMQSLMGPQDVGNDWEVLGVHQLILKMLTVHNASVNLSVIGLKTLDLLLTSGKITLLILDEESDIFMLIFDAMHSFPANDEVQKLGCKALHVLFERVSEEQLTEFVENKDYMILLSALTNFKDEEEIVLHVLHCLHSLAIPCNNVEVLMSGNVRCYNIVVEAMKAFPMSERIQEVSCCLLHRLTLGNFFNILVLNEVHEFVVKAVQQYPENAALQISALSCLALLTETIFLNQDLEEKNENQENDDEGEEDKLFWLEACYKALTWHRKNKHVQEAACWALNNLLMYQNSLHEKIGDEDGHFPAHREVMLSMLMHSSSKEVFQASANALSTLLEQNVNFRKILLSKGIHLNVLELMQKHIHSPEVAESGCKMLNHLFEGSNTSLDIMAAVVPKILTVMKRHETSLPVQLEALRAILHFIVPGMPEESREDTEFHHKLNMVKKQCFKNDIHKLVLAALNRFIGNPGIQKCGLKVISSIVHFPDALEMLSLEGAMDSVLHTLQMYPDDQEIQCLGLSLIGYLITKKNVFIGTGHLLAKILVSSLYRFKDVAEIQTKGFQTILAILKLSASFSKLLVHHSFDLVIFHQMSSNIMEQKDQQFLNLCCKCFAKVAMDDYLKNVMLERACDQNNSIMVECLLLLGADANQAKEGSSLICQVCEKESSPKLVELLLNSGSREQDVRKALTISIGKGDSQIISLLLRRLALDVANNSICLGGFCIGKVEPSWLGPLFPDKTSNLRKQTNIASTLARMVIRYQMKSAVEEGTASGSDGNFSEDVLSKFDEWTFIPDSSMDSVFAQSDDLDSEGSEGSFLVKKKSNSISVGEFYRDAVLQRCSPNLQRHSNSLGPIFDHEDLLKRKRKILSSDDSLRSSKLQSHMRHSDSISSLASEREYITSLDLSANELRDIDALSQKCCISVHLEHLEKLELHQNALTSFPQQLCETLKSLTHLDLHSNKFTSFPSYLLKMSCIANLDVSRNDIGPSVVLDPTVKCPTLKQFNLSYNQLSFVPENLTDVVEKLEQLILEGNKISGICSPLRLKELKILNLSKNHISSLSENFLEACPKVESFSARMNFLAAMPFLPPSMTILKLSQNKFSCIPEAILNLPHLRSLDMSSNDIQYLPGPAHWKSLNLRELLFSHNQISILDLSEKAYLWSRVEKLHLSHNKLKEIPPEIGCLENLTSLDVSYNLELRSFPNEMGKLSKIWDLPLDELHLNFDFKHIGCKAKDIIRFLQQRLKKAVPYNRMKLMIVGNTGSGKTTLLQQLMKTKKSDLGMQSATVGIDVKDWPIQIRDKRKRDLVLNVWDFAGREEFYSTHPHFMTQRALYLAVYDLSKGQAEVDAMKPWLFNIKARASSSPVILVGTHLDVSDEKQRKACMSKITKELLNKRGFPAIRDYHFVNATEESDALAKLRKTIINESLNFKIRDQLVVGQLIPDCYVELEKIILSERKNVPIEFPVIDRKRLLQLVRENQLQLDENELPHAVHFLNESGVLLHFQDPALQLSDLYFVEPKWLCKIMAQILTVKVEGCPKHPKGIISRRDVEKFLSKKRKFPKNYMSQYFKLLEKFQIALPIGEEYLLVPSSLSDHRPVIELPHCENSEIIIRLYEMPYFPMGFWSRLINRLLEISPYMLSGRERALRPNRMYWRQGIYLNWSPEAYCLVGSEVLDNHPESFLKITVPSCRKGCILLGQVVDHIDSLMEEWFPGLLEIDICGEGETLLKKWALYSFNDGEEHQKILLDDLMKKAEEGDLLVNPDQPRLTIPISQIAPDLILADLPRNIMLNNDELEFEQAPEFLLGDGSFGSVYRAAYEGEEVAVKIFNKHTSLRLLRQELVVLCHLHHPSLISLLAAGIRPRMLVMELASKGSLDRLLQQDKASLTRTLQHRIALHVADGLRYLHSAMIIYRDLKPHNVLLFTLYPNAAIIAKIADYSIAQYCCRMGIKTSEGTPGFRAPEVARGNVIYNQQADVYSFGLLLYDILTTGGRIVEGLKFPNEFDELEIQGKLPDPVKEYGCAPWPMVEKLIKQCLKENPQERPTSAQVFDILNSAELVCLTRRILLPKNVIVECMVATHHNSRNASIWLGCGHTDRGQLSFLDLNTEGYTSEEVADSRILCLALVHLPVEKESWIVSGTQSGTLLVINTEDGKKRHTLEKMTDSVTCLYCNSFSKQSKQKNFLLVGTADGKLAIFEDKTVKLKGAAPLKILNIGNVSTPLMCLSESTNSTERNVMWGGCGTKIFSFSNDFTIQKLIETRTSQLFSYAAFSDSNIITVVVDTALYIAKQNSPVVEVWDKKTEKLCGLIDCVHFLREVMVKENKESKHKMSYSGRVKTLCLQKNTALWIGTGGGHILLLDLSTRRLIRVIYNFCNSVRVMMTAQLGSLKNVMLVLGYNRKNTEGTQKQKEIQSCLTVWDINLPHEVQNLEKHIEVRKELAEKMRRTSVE

IC50, < 0.03 µM:
CCNc1nc(Nc2cn(C3C[C@@]3(C)C#N)nc2C2CC2)ncc1C(F)(F)F (single isomer, unassigned) [Compound 1, 2-(3-cyclopropyl-4-((4-(ethylamino)-5-(trifluoromethyl)pyrimidin-2-yl)amino)-1H-pyrazol-1-yl)-1-methylcyclopropanecarbonitrile]
CNc1nc(Nc2cn(C3C[C@@]3(C)C#N)nc2C2CC2)ncc1C(F)(F)F (single isomer, unassigned) [Compound 2]
CNc1nc(Nc2cn(C3C[C@]3(C)C#N)nc2C2CC2)ncc1C(F)(F)F (single isomer, unassigned) [Compound 3]
CCNc1nc(Nc2cn(C3C[C@]3(C)C#N)nc2C2CC2)ncc1C(F)(F)F (single isomer, unassigned) [Compound 4, 2-(3-cyclopropyl-4-((4-(ethylamino)-5-(trifluoromethyl)pyrimidin-2-yl)amino)-1H-pyrazol-1-yl)-1-methylcyclopropanecarbonitrile]
CNc1nc(Nc2cn(C3C[C@]3(C)C#N)nc2C)ncc1C(F)(F)F (single isomer, unassigned) [Compound 5]
CCNc1nc(Nc2cn(C3C[C@]3(C)C#N)nc2C)ncc1C(F)(F)F (single isomer, unassigned) [Compound 6]
Cc1nn(C2C[C@]2(C)C#N)cc1Nc1ncc(C(F)(F)F)c(NC2CC2)n1 (single isomer, unassigned) [Compound 7]
CCNc1nc(Nc2cn(C3C[C@@]3(C)C#N)nc2C)ncc1C(F)(F)F (single isomer, unassigned) [Compound 8]
Cc1nn(C2C[C@@]2(C)C#N)cc1Nc1ncc(C(F)(F)F)c(NC2CC2)n1 (single isomer, unassigned) [Compound 9]
CNc1nc(Nc2cn(C3C[C@@]3(C)C#N)nc2C)ncc1C(F)(F)F (single isomer, unassigned) [Compound 10]
CCNc1nc(Nc2cn(C3C[C@]3(C)C#N)nc2C)ncc1Br (single isomer, unassigned) [Compound 11]
CCNc1nc(Nc2cn(C3C[C@@]3(C)C#N)nc2C)ncc1Br (single isomer, unassigned) [Compound 12]
Cc1nn(C2C[C@]2(C)C#N)cc1Nc1ncc(C(F)(F)F)c(NC2(C)CC2)n1 (single isomer, unassigned) [Compound 13]
Cc1nn(C2C[C@@]2(C)C#N)cc1Nc1ncc(C(F)(F)F)c(NC2(C)CC2)n1 (single isomer, unassigned) [Compound 14]
Cc1c(Nc2ncc(C(F)(F)F)c(NC3CC3)n2)cnn1C1C[C@]1(C)C#N (single isomer, unassigned) [Compound 15]
Cc1c(Nc2ncc(C(F)(F)F)c(NC3CC3)n2)cnn1C1C[C@@]1(C)C#N (single isomer, unassigned) [Compound 16]
CCNc1nc(Nc2cn(C3C[C@H]3C#N)nc2C2CC2)ncc1C(F)(F)F (single isomer, unassigned) [Compound 17]
CCNc1nc(Nc2cnn(C3C[C@@H]3C#N)c2C)ncc1C(F)(F)F (single isomer, unassigned) [Compound 18]
CCNc1nc(Nc2cnn(C3C[C@H]3C#N)c2C)ncc1C(F)(F)F (single isomer, unassigned) [Compound 19]
